Species on record: Rattus norvegicus
Test: Open TG-GATES - Regimen: Daily Repeat
Type: toxicity, organism-based, Sprague-Dawley
Set-up: regimen Daily Repeat, gender Male, age 6 weeks
Conditions: in vivo, po, 75 mg/kg, route gavage, dose level High; for APTT / Bas / Eos / Fbg / Hb / Ht / Lym / MCH / MCHC / MCV / Mono / Neu / PT / Plat / RBC / Ret / WBC: tissue Blood
[1] = 72 h, tissue Kidney, time 3 day
[2] = 72 h, tissue Plasma, time 3 day

NC1=NC(=O)C(c2ccccc2)O1 (stereo unspecified) [PEMOLINE]
TERMINAL_BW (72 h, time 3 day): 210.2 g | APTT (72 h, time 3 day): 16.1 s | Bas (72 h, time 3 day): 0% | Eos (72 h, time 3 day): 1% | Fbg (72 h, time 3 day): 378.8 mg/dL | Hb (72 h, time 3 day): 13.2 g/dL | Ht (72 h, time 3 day): 38.4% | Lym (72 h, time 3 day): 72.6% | MCH (72 h, time 3 day): 21.4 pg | MCHC (72 h, time 3 day): 34.3% | MCV (72 h, time 3 day): 62.4 fL | Mono (72 h, time 3 day): 4% | Neu (72 h, time 3 day): 21.4% | PT (72 h, time 3 day): 13.1 s | Plat (72 h, time 3 day): 116.2 x10_4/uL | RBC (72 h, time 3 day): 614.2 x10_4/ul | Ret (72 h, time 3 day): 5.7% | WBC (72 h, time 3 day): 96.9 x10_2/uL | KIDNEY_L [1]: 1 g | KIDNEY_R [1]: 1 g | KIDNEY_TOTAL [1]: 1.9 g | LIVER (72 h, tissue Liver, time 3 day): 9.5 g | A/G [2]: 0.9 | ALP [2]: 1189.4 IU/L | ALT [2]: 40.6 IU/L | AST [2]: 91.6 IU/L | BUN [2]: 14.4 mg/dL | CRE [2]: 0.2 mg/dL | Ca [2]: 10.5 mg/dL | Cl [2]: 106 meq/L | DBIL [2]: 0.014 mg/dL | GLC [2]: 162.2 mg/dL | IP [2]: 7.4 mg/dL | K [2]: 4 meq/L | LDH [2]: 46.6 IU/L | Na [2]: 142.6 meq/L | PL [2]: 118.6 mg/dL | RALB [2]: 2.6 g/dL | TBIL [2]: 0.03 mg/dL | TC [2]: 70.8 mg/dL | TG [2]: 40.2 mg/dL | TP [2]: 5.4 g/dL | gamma-GTP [2]: 1 IU/L | TERMINAL_BW ([…], time 7 day): 237.7 g | TERMINAL_BW ([…], time 14 day): 305 g | TERMINAL_BW ([…], time 28 day): 376.6 g | APTT ([…], time 7 day): 16.7 s | Bas ([…], time 7 day): 0% | Eos ([…], time 7 day): 1% | Fbg ([…], time 7 day): 294.8 mg/dL | Hb ([…], time 7 day): 13.9 g/dL | Ht ([…], time 7 day): 40.7% | Lym ([…], time 7 day): 78% | MCH ([…], time 7 day): 21.9 pg | MCHC ([…], time 7 day): 34.2% | MCV ([…], time 7 day): 63.8 fL | Mono ([…], time 7 day): 3% | Neu ([…], time 7 day): 17.8% | PT ([…], time 7 day): 12.9 s | Plat ([…], time 7 day): 131.8 x10_4/uL | RBC ([…], time 7 day): 638.8 x10_4/ul | Ret ([…], time 7 day): 6.6% | WBC ([…], time 7 day): 88.3 x10_2/uL | APTT ([…], time 14 day): 16.9 s | Bas ([…], time 14 day): 0% | Eos ([…], time 14 day): 1.2% | Fbg ([…], time 14 day): 259.4 mg/dL | Hb ([…], time 14 day): 14.6 g/dL | Ht ([…], time 14 day): 41.8% | Lym ([…], time 14 day): 72.4% | MCH ([…], time 14 day): 21.1 pg | MCHC ([…], time 14 day): 34.8% | MCV ([…], time 14 day): 60.5 fL | Mono ([…], time 14 day): 2.8% | Neu ([…], time 14 day): 23.2% | PT ([…], time 14 day): 13 s | Plat ([…], time 14 day): 105.3 x10_4/uL | RBC ([…], time 14 day): 691.2 x10_4/ul | Ret ([…], time 14 day): 4.7% | WBC ([…], time 14 day): 89.3 x10_2/uL | APTT ([…], time 28 day): 18.6 s | Bas ([…], time 28 day): 0.4% | Eos ([…], time 28 day): 1% | Fbg ([…], time 28 day): 255.2 mg/dL | Hb ([…], time 28 day): 15.7 g/dL | Ht ([…], time 28 day): 44.2%

Reference: ChEMBL document CHEMBL3885861, “Open TG-GATES”
